Reference: patent US7772252B2, “Heterocyclic substituted carbonyl derivatives and their use as dopamine D3 receptor ligands” (Aventis Pharmaceuticals Inc., priority 2001, dated 2010)

Each compound was assayed against T1, cloned human dopamine D3 receptors (Homo sapiens, UniProt P35462) (assay: [N-Methyl-3H]Spiroperidol binding to cloned human dopamine D3 receptors). Details: read-out: D3 Ki.
T1 construct: expressed in transfected cells; membrane homogenate
T1 sequence (P35462 whole entry): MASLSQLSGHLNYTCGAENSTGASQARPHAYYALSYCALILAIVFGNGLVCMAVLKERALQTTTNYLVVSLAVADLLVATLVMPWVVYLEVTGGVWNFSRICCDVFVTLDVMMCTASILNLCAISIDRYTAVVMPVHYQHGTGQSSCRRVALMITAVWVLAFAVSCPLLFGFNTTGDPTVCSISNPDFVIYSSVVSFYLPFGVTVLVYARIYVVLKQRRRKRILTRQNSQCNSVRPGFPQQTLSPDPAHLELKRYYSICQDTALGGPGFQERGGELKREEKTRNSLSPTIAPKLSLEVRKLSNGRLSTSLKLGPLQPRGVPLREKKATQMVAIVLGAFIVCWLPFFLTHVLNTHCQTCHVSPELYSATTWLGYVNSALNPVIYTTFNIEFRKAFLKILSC
Text: [N-Methyl-^3H]Spiroperidol Binding to Cloned Human Dopamine D3 Receptors
This assay measures the in vitro activity of compounds on cloned human dopamine (D3) receptors and predicts the direct dopamine-blocking properties of putative neuropsychiatric agents at human dopamine D3 receptors.
The D3 gene was isolated from a human striatal cDNA library (Stratagene). The gene was sequenced and sub-cloned into the expression vector RC/RSV (Invitrogen). CHO (Chinese Hamster Ovary) cells were stably transfected with 10 μg of the D3/RSV plasmid using the DOTAP method from Boehringer Mannheim and 72 clones that were G418 resistant were isolated. Using mRNA and binding displacement data a single high expressing clone was identified. This clone was then grown in large batches for the purpose of developing a 96 well format assay.
• 1. One plate (10 cm) with approximately 2-3 million D3 cells per plate is incubated with 1 ml of Trypsin-EDTA at room temperature for ˜2 min or until cells have lifted off plates. Four ml of Ham's F12+10% Fetal Bovine Serum+1% Penicillin/Streptomycin+G418 (400 μg/ml) medium are added to resuspend cells and 1 ml of this is added to each large plate (15 cm) containing 19 ml of the same medium as mentioned above. • 2. The 5 large plates are incubated at 37° C.+5% CO2 for ˜3 days or until the cells are confluent. • 3. After these plates are confluent, they are split into 10 large plates. Medium is aspirated off, 2 ml of Trypsin-EDTA are added to each plate and plates are incubated at RT for 2 min or until cells have lifted off the plate. Eight ml of the F12 medium (same medium as #1 above) are added to each plate (10 ml total) to resuspend the cells and 5 ml are transferred to the 2 new plates containing 15 ml of the F12 media. • 4. The 10 large plates are incubated at 37° C.+5% CO2 for ˜2 days or until the cells are confluent. • 5. The 10 large plates are split into 60 large plates (using Trypsin-EDTA as #3 except 4 ml of F12 medium are added to resuspend cells and 1 ml is aliquoted to 6 new plates containing 19 ml of F12 medium each). • 6. Plates are incubated at 37° C.+5% CO2 for ˜3 days or until cell are confluent. • 7. The 60 large plates are then split into 60 roller bottles (100-150 million cells/bottle). Medium is aspirated off, 2 ml of Trypsin-EDTA are added to each plate and incubated at RT for ˜2 minutes or until cells have lifted off plates. Eight ml of F12 medium are added to each plate to resuspend cells and the entire 10 ml are added to 1 roller bottle containing 90 ml of the F12 medium. • 8. The 60 roller bottles are immediately placed on their sides and transferred to the roller bottle incubator. They are incubated at 37° C.+5% CO2 for ˜3-5 days. Cells are spun at 30-40% motor speed in the Form a incubator. • 9. Medium is poured off and cells are washed 2× in PBS. • 10. Cells are then scraped off in 20 ml of PBS and the bottles are rinsed again with 5 ml of PBS to remove any remaining cells. Cells are stored on ice before membrane preparation. • 11. The yield for 60 D3 roller bottles has varied from ˜260-500 mg. • Note: All tissue culture reagents are from Gibco-BRL. C. Membrane Preparation
The cells are harvested into 250 ml centrifuge tubes with 100 volumes of cold phosphate buffered saline (PBS) and spun down (1200×G for 10 min at 4° C.). The medium is removed and 100 ml PBS are added to each centrifuge tube, cells are resuspened and spun down again. The PBS is removed and the final pellet is homogenized in an appropriate volume of 10% DMSO with a polytron on ice at a medium setting.
A 200 μl sample membrane homogenate is added to 200 μl of 1% SDS, vortexed and allowed to stand for 5 min. Aliquots (25, 50 and 100 μl) of this mixture are assayed in duplicate following the standard Bio-Rad DC protein assay protocol (kit catalog number 500-0112) and using reagent S. Absorbance readings are made at 750 nm (note: the most accurate protein OD readings are between 0.1-0.5 units). […]
Work on `Cc1ccc(S(=O)(=O)n2nc(N3CCN(C[C@@H]4C[C@H]4C(=O)NCCCn4ccnc4)CC3)c3sccc32)cc1` [compound 831267] yielded a Ki of 28.3 nM.
Work on `COc1c(F)ccc2c(C3CCN(C[C@H]4C[C@@H]4C(=O)N[C@H]4CC[C@H](C)CC4)CC3)noc12` [compound 831360] yielded a Ki of 17.1 nM.
With `CCC1CCC(NC(=O)C2CC2CN2CCN(C(=O)OC(C)(C)C)CC2)CC1` (racemic) [compound 827223] the Ki was 159 nM.
Work on `COc1ccc2[nH]nc(N3CCN(CC4CC4C(=O)NC4CCC(C)CC4)CC3)c2c1` (racemic) [compound 830439] yielded a Ki of 17.6 nM.
`O=C(NCCNC(=O)C1CC1CN1CCC(c2noc3ccsc23)CC1)OCc1ccccc1` (racemic) [compound 831649] gave a Ki of 173 nM.
Compound `O=C(NCCCN1CCCCC1)[C@@H]1C[C@H]1CN1CCC(c2nn(-c3ccc(F)cc3)c3cc(F)ccc23)CC1` [compound 833157] has a Ki of 43.9 nM.
For `O=C(NCCSc1ccc(Cl)cc1)[C@@H]1C[C@H]1CN1CCN(c2csc3cc(C(F)(F)F)ccc23)CC1` [compound 832497], the Ki was 38 nM.
Work on `CCCc1cc(N2CCN(CC3CC3C(=O)NC3CCC(CC)CC3)CC2)nc(C(C)(C)C)n1` (racemic) [compound 817274] yielded a Ki of 4.49 nM.
For `COc1ccc2c(c1)c(N1CCN(C[C@@H]3C[C@H]3C(=O)N3CCCC(Cn4ccnc4)C3)CC1)nn2C` (mixture of isomers) [compound 834173], the Ki was 5.15 nM.
`CC(C)(C)OC(=O)N1CCCC(CNC(=O)[C@@H]2C[C@H]2CN2CCN(c3csc4cc(C(F)(F)F)ccc34)CC2)C1` (mixture of isomers) [compound 832501] showed a Ki of 41.4 nM.
`CC1CCC(NC(=O)C2CC2CN2CCCN(c3noc4ccsc34)CC2)CC1` (racemic) [compound 830126] showed a Ki of 23.8 nM.
`O=C(NCCN1CCNC1=O)[C@@H]1C[C@H]1CN1CCC(c2noc3ccsc23)CC1` [compound 832529] gave a Ki of 146 nM.
Compound `CN1CCN(CCCNC(=O)[C@@H]2C[C@H]2CN2CCC(c3nn(C)c4ccsc34)CC2)CC1` [A002438640] has a Ki of 104 nM.
`N=C(N)N1CCC(CNC(=O)[C@@H]2C[C@H]2CN2CCN(c3csc4cc(C(F)(F)F)ccc34)CC2)CC1` [compound 832496] gave a Ki of 3.66 nM.
With `O=C(NCCN1CCNC1=O)[C@@H]1C[C@H]1CN1CCN(c2csc3cc(C(F)(F)F)ccc23)CC1` [compound 832498] the Ki was 70.3 nM.
Work on `O=C(NCCSc1ccc(Cl)cc1)C1CC1CN1CCC(c2noc3ccsc23)CC1` (racemic) [compound 832397] yielded a Ki of 51.9 nM.
`O=C(NCCCc1cccnc1)[C@@H]1C[C@H]1CN1CCC(c2noc3ccsc23)CC1` [compound 831195] showed a Ki of 1.84 nM.
In the case of `O=C(NC1CCN(Cc2ccc(Cl)cc2)CC1)C1CC1CN1CCC(c2noc3ccsc23)CC1` (racemic) [compound 831997], the Ki is reported as 3.55 nM.
`O=C(NC1CCN(Cc2c(Cl)cccc2Cl)CC1)C1CC1CN1CCC(c2noc3ccsc23)CC1` (racemic) [compound 831821] showed a Ki of 24.1 nM.
`CN1CCCN(C(=O)C2CC2CN2CCC(c3noc4ccsc34)CC2)CC1` (racemic) [compound 829597] showed a Ki of 226 nM.
In the case of `C[C@H]1CC[C@H](NC(=O)[C@@H]2C[C@H]2CN2CCC(c3nsc4cc(Br)ccc34)CC2)CC1` [compound 833703], the Ki is reported as 1.92 nM.
With `O=C(C1CC1CN1CCC(c2noc3ccsc23)CC1)N1CCN(c2ncccn2)CC1` (racemic) [compound 827394] the Ki was 391 nM.
`C[C@H]1CC[C@H](NC(=O)[C@@H]2C[C@H]2CN2CCC(c3n[nH]c4cc(C(F)(F)F)ccc34)CC2)CC1` [compound 833941] was tested, and the Ki was 8.98 nM.
`O=C(NC1CCN(Cc2ncc[nH]2)CC1)[C@@H]1C[C@H]1CN1CCN(c2csc3cc(C(F)(F)F)ccc23)CC1` [compound 832583] gave a Ki of 1.61 nM.
In the case of `CN1CCN(CCCNC(=O)[C@@H]2C[C@H]2CN2CCC(c3nn(-c4ccccc4)c4ccsc34)CC2)CC1` [A002439263], the Ki is reported as 30.6 nM.
`O=C(NCCS(=O)(=O)c1cccc2c(Cl)cccc12)C1CC1CN1CCC(c2noc3ccsc23)CC1` (racemic) [compound 831689] showed a Ki of 16.4 nM.
`O=C(NCCCn1cnc(Cl)c1Cl)[C@@H]1C[C@H]1CN1CCC(c2noc3ccsc23)CC1` [compound 831198] gave a Ki of 1.76 nM.
In the case of `COc1c(F)ccc2c(C3CCN(C[C@@H]4C[C@H]4C(=O)N[C@H]4CC[C@H](O)CC4)CC3)noc12` [compound 831952], the Ki is reported as 42.8 nM.
`O=C(NCCCc1ccccc1)[C@@H]1C[C@H]1CN1CCN(c2csc3cc(C(F)(F)F)ccc23)CC1` [compound 831270] gave a Ki of 17.8 nM.
In the case of `COc1ccc2c(c1)c(N1CCN(C[C@@H]3C[C@H]3C(=O)NC3CCN(Cc4ccc(F)cc4F)CC3)CC1)nn2C` [compound 833627], the Ki is reported as 1.63 nM.
`O=C(NC[C@@H]1CCNC1)[C@@H]1C[C@H]1CN1CCC(c2noc3ccsc23)CC1` [compound 833384] was tested, and the Ki was 5.68 nM.
In the case of `O=C(NC1CCN(CC2CCCCC2)CC1)[C@@H]1C[C@H]1CN1CCC(c2noc3ccsc23)CC1` [compound 832733], the Ki is reported as 0.656 nM.
In the case of `O=C(NCCc1c[nH]cn1)[C@@H]1C[C@H]1CN1CCC(c2noc3ccsc23)CC1` [compound 831192], the Ki is reported as 3.44 nM.
For `COc1cccc2c(C3CCN(C[C@@H]4C[C@H]4C(=O)N4CCCC(Cn5ccnc5)C4)CC3)noc12` (mixture of isomers) [compound 833910], the Ki was 1.09 nM.
For `O=C([C@@H]1C[C@H]1CN1CCC(c2noc3ccc(C(F)(F)F)cc23)CC1)N1CCC(Cn2ccnc2)CC1` [A002200836], the Ki was 1.51 nM.
`O=C(NC1CCN(Cc2cc(Cl)cc(Cl)c2)CC1)C1CC1CN1CCC(c2noc3ccsc23)CC1` (racemic) [compound 831819] gave a Ki of 0.1 nM.
Compound `Cn1nc(C2CCN(C[C@@H]3C[C@H]3C(=O)NCC3CCN(C(=O)OC(C)(C)C)CC3)CC2)c2sccc21` [A002438641] has a Ki of 62.8 nM.
`COc1ccc(CCNC(=O)C2CC2CN2CCC(c3noc4ccsc34)CC2)cc1OC` (racemic) [compound 832186] showed a Ki of 16.1 nM.
In the case of `CC1(C)CC(NC(=O)C2CC2CN2CCC(c3noc4ccsc34)CC2)CC(C)(C)N1` (racemic) [compound 832187], the Ki is reported as 19.1 nM.
For `O=C([C@@H]1C[C@H]1CN1CCC(c2noc3ccsc23)CC1)N1CCN(c2ccccn2)CC1` [compound 830252], the Ki was 110 nM.
`O=C(NCCc1cccc(Cl)c1)C1CC1CN1CCC(c2noc3ccsc23)CC1` (racemic) [compound 831799] showed a Ki of 12.1 nM.
`O=C(C1CC1CN1CCC(c2noc3ccsc23)CC1)N1CCN(Cc2ccncc2)CC1` (racemic) [compound 831999] was tested, and the Ki was 473 nM.
`CN(CCc1c[nH]c2ccccc12)C(=O)[C@@H]1C[C@H]1CN1CCC(c2noc3ccsc23)CC1` [compound 831278] was tested, and the Ki was 18.1 nM.
For `O=C(c1ccc(Cl)cc1)C1CCN(C(=O)C2CC2CN2CCC(c3noc4ccsc34)CC2)CC1` (racemic) [compound 831458], the Ki was 7.43 nM.
In the case of `COc1ccc2c(c1)c(N1CCN(C[C@@H]3C[C@H]3C(=O)NCCCn3ccnc3)CC1)nn2-c1ccc(C(F)(F)F)cc1` [compound 831313], the Ki is reported as 134 nM.
Work on `O=C(NCC1CCNCC1)[C@@H]1C[C@H]1CN1CCN(c2csc3cc(C(F)(F)F)ccc23)CC1` [compound 832859] yielded a Ki of 14.3 nM.
For `O=C(NCCCn1ccnc1)[C@@H]1C[C@H]1CN1CCC(c2noc3ccc(C(F)(F)F)cc23)CC1` [A002200837], the Ki was 0.368 nM.
With `Cn1nc(N2CCN(C[C@@H]3C[C@H]3C(=O)NC3CCN(Cc4ccc(F)c(F)c4)CC3)CC2)c2sccc21` [A002436428] the Ki was 2.17 nM.
`O=C(C1CC1CN1CCC(c2noc3ccsc23)CC1)N1CCN(CCc2ccncc2)CC1` (racemic) [compound 832000] showed a Ki of 79.6 nM.

Same assay, conditions: read-out: d3Ki
Compound `CCN(C(=O)CCCN1CCN(c2csc3cc(C(F)(F)F)ccc23)CC1)C1CCCCC1` [compound 826809] has a Ki of 71 nM.
